Reference: patent publication US20140228299A1, “PROPHYLACTIC AND THERAPEUTIC AGENT FOR NEUROLOGICAL DISEASES USING LIPOPROTEINS AND PROPHYLACTIC AND THERAPEUTIC METHOD FOR NEUROLOGICAL DISEASES” (National University Corporation Tokyo Medical and Dental …, priority 2011, published 2014)

Experiments:
[1] = tested on: retinal ganglion cells; assay: Glutamic acid-induced apoptosis of cultured retinal ganglion cells (Hoechst 33342 or calcein AM/propidium iodide staining); assay type: cell-based, rat
Description: The primary culture of the retinal glia cells was carried out using two-day-old Sprague Dawley (SD) baby rats in accordance with a somewhat modified method (Hayashi et al., J. Biol. Chem. 2009) of the method of Barres et al. (Barres, et al., 1988). The isolated retinal glia cells (RGC) were suspended in a base culture medium of a RGC medium (1 mM glutamine, 5 μg/mL insulin, 60 μg/mL N-acetylcysteine, 62 ng/mL progesterone, 16 μg/mL putrescine, 40 ng/mL sodium selenite, 0.1 mg/mL bovine serum albumin, 40 ng/mL triiodothyronine, 0.1 mg/mL transferrin, 1 mM sodium pyruvate, 2% B27 supplement (Invitrogen, Carlsbad, Calif.), 10 μM forskolin (Sigma, St. Louis, Mo.), 50 ng/mL brain-derived neurotrophic factor (BDNF; PeproTech, Rocky Hill, N.J.), 50 ng/mL ciliary neurotrophic factor (CNTF; Peprotech), and 50 ng/mL basic fibroblast growth factor (bFGF; PeproTech). A 96-well plate was coated with poly-d-lysine (Sigma) and laminin (Sigma), and RGC was placed at the rate of 5,000 cells per well for the 96-well place, 5,000 cells per each culture insert for microdish, or 15,000 cells per dish for compartmentalized culture, followed by incubating for at least 10 days before experimentation.
In the figure, Cant represents a non-treated group, Glu represents a group with 300 μM glutamic acid added, and +glial LP represents a group with 300 μM glutamate+glia-cell-derived lipoprotein containing apolipoprotein E added. Glial LP was added in the concentration of 1 μg cholesterol/mL. After treatment, the rate of apoptosis-like cells was computed by observing the aggregation of the nuclei (a: nuclear staining with Hoechst 33342) or the sustained impermeability of esterase activity/membrane (b: calcein AM/Propidium Iodide staining) in 24 hours.
The induction and detection of apoptosis in RGC were performed in the manner as described below. Specifically, RGC was washed twice with Hanks' balanced salt solution (HBSS) containing 2.4 mM CaCl2 and 20 mM HEPES, but not containing magnesium, and incubated at 37° C. for 2 hours in a medium prepared by adding 300 μM glutamate and 10 μM glycine to the above Hanks' balanced salt solution. After treatment with glutamate, RGC was incubated at 37° C. for 22 hours in a RGC culture medium containing no forskolin, BDNF, CNTF and bFGF. In order to detect apoptosis, RGC was stained with 1 μg/mL of Hoechst 33342 (346-07951, Dojindo, Kumamoto, Japan) or 1 μg/mL of calcein-AM/propidium iodide (341-07381, Dojindo). The fluorescence images were observed by Olympus IX71 microscope. The fragmented or aggregated nuclei stained with the above Hoechst reagent were counted as apoptotic nuclei, and round and smooth nuclei were counted as sound nuclei. As the sound nuclei were not stained with propidium iodide, the nuclei stained with propidium iodide were counted as apoptotic nuclei. More than 300 nuclei were counted in each group.
The apoptosis of RGC was measured in the following manner. The RGC subjected to the primary incubated was incubated two times at 37° C. for 15 minutes using Hanks' Balanced Salt Solution (HBSS) containing 2.4 mM CaCl2 and 20 mM 4-(2-hydroxyethyl)-pyperazine-1-ethanesulfonic acid (HEPES) but containing no magnesium and then washed. […], the magnesium was removed from the washing solution. Thereafter, the RGC was treated or not treated with […] (a co-activating agent for the NMDA receptor) in HBSS containing 2.4 mM CaCl2 and 20 mM HEPES (without magnesium) and then incubated at 37° C. for 2 hours. A control (HBSS containing 2.4 mM CaCl2 and 20 mM HEPES (without containing magnesium)) or the RGC treated or not treated with glutamic acid was incubated at 37° C. for 22 hours in the same medium as used for the RGC (without forskolin, brain-derived neurotrophic factor, ciliary neurotrophic factor and basic fibroblast growth factor). […]

[2] = tested on: retinal ganglion cells of GLAST knockout mouse; assay: Intravitreal administration to GLAST knockout mouse (normal-pressure glaucoma model), counting of retinal ganglion cells; assay type: in vivo
Description: This example is an experiment to investigate whether the reconstituted lipoprotein containing apolipoprotein E3 (LP) inhibits apoptosis of the […] of a GLAST knockout mouse as a normal-pressure glaucoma model animal. […] The eyeball was removed at the time of six weeks, followed by fixing with paraffin, staining with hematoxylin-eosin, and counting the retinal glia cells on the retina.
Three-week-old GLAST+/− or GLAST−/− mice were anesthetized by intraperitoneal injection of 50 mg/kg of pentobarbital sodium. […]
The eyeball of a six-week-old mouse was removed and fixed overnight at 4° C. using Super Fix (KY-500, Kurabo. Osaka), followed by removing the cornea and the crystalline lens under a stereoscopic microscope. […] Five sections were selected from each of the continuous sections and the number of the cells within the glia cell layer was counted in a range extending from one end of the retinal section to the other end through the optic nerve. More than 2,000 cells were counted on 10 sections of each retina.

Substance	difference in neuroprotective effects between apoE isoforms in RGC treated with glutamic acid ([1]; 100 ng protein/mL, 15 minutes before Glu)	apoptosis of retinal cells induced by glutamic acid (apoptosis-like cells) ([1]; added at 100 ng protein/mL, Hoechst 33342)	apoptosis of the retinal cells of GLAST knockout mouse ([2]; LP (100 ng protein/mL) into vitreous body at three weeks, eyeball removed at six weeks)	effect on the inhibitory effects of α2-macroglobulin on neuroprotection ([1]; 100 nM a2M, E-LP 100-3,000 ng protein/mL, Glu, Hoechst 24 hours)	protection of RGC from Glu-induced neurotoxicity, dose dependence ([1]; RGC incubated with E-LP 15 minutes before Glu)	RGC existence in Glast+/− and Glast−/− mice ([2]; 1 μl of 1.5 μg protein/mL E-LP into vitreous body, three-week-old injected, six-week-old examined)
LP: reconstituted lipoprotein of POPC, cholesterol and recombinant human apolipoprotein E3	no difference	inhibited the apoptosis	inhibited apoptosis			
E-LP: reconstituted lipoprotein of 1-palmitoyl-2-oleyl-glycerophosphocoline, cholesterol and recombinant human apolipoprotein E, molar ratio 100:10:1 or 100:0:1				inhibited	protected the RGC in a dose-dependent manner	recovery
